Tests used:
[1] = Evaluation of a conversion rate to 2-acetylnaphtho[2,3-b]furan-4,9-dione in pH 7.4 phosphate buffer solution; assay type: physicochemical; details: Phosphate buffer solution (pH 7.4), 1 umol/L, 37° C., incubation time 120 min
Outline: (§1)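 Compounds at 1 umol/L were incubated at 37° C in human plasma, CD1 mouse plasma or pH 7.4 phosphate buffer, sampled up to 120 minutes, acid/acetonitrile-deproteinised and analysed by LC-MS (ESI positive). Conversion (%) derived from the peak area ratio of the active form to phenytoin internal standard.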

[2] = Solubility test; details: 50 mmol/L glycine buffer solution (pH 2.0), room temperature, 24 hours shaking
Protocol: A water-soluble prodrug was added into 50 mmol/L glycine buffer solution (pH 2.0). After shaking at room temperature for 24 hours, the mixture was filtered through a membrane filter, and then the filtrate was measured with HPLC.
The measurement condition of HPLC is as described below. HPLC condition column: Acquity UPLC BEH C18, 1.7 um, 50×2.1 mm

[3] = Evaluation of a conversion rate to 2-acetylnaphtho[2,3-b]furan-4,9-dione in human plasma; assay type: in vitro ADME; details: Human plasma, 1 umol/L, 37° C., incubation time 120 min
Outline: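 Compounds at 1 umol/L incubated at 37° C in human plasma, CD1 mouse plasma or pH 7.4 phosphate buffer, sampled up to 120 minutes. After acidified acetonitrile protein removal, parent loss and conversion to 2-acetylnaphtho[2,3-b]furan-4,9-dione measured by LC-MS (ESI positive).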

[4] = Solution stability test; assay type: physicochemical; details: for % Residual ratio: 25 umol/L
Protocol: For Example 6, Example 11, and Example 22, the stability in each pH was measured. Test compounds at a concentration of 25 umol/L in respective buffer solutions prepared at pH 2.0, 3.0, 5.0, 7.4, and 9.0 were allowed to stand at 25° C. After 0, 3, 6, 9, 12, and 24 hours, they were measured with HPLC.
The buffer solutions used at respective pHs are as described below. pH 2.0: 50 mmol/L glycine buffer solution pH 3.0: 50 mmol/L citrate buffer solution pH 5.0: 50 mmol/L citrate buffer solution pH 7.4: 50 mmol/L phosphate buffer solution pH 9.0: 50 mmol/L glycine buffer solution
The measurement condition of HPLC is as described below.
Column temperature: 40° C.
Mobile phase: A: 0.1% trifluoroacetic acid-containing water

[5] = Evaluation of a conversion rate to 2-acetylnaphtho[2,3-b]furan-4,9-dione in CD1 mouse plasma; assay type: in vitro ADME; details: CD1 mouse plasma, 1 umol/L, 37° C., incubation time 120 min
Outline: as §1

[6] = Pharmacokinetics test, intravenous administration; details: for Plasma Compound Concentration: Activated form 1 in plasma, 10.5 mg/kg (i.v.)
Protocol: For water-soluble prodrugs described in the EXAMPLES, the concentration of 2-acetylnaphtho[2,3-b]furan-4,9-dione (Activated form 1) in plasma was measured. Animal species, an administration method, a method of making standard solutions, and a method of measuring the concentration in plasma are as described below.
Animal: Seven-week-aged male CD1 (ICR) mice were used as an experimental animal.
Administration method: A test substance was weighed, and then dissolved in 50 mmol/L glycine buffered saline (pH 2.0) to produce an administration solution. The body weight of a mouse was measured, and the prepared administration solution was intravenously administered.
Blood collecting method: Heparin was added to a blood-collecting vessel, and blood was collected from a mouse. To the obtained blood, 46% of Citric acid was added in 1% volume. It was then centrifuged to obtain plasma. To the collected plasma, 1 mol/L HCl was added in 10% volume to produce a plasma sample. A sample obtained by adding 10% volume of 1 mol/L HCl to blank plasma was used as a blank sample.
Making of a standard solution: One mg of a test sample was weighed, and dissolved in 10 mL of acetonitrile using a measuring flask to make a standard solution of 100 ug/mL.
Measurement of the concentration in plasma: One hundred ug/mL of the standard solution was diluted in 50% acetonitrile solution to make calibration curve samples of target concentrations. Twenty uL of a blank sample was added to 18 uL of the calibration curve sample to make a plasma calibration curve sample. Eighteen uL of 50% acetonitrile solution was added to 20 uL of the administered plasma sample to make a sample for plasma analysis. One hundred uL of acetonitrile (containing 1% volume of 10 mol/L HCl) containing an internal standard was added to the plasma calibration curve sample and the sample for plasma analysis, respectively. It should be noted that phenytoin was used as the internal standard and its concentration was prepared in 100 nmol/L. 10 uL of each sample was analyzed with LC-MS. A calibration curve was made from a value (peak ratio) of the peak area of a test substance in MS divided by the peak area of the internal standard, and the concentrations of plasma calibration curve samples. The concentration in a sample was calculated from the peak ratio of each sample and the calibration curve.

Structure (SMILES): COC(=O)[C@@H](N)CCNC(=O)Oc1c2ccccc2c(OC(=O)NCC[C@H](N)C(=O)OC)c2oc(C(C)=O)cc12.Cl.Cl [Example 11]
- % Measurement value (conversion rate to 2-acetylnaphtho[2,3-b]furan-4,9-dione) [1]: 58%
- Solubility in pH 2.0 buffer solution [2]: >5.0 mg/mL
- % Measurement value (conversion rate to 2-acetylnaphtho[2,3-b]furan-4,9-dione) [3]: 100%
- stability in solution (in words) ([4]; pH 2.0, 25° C.): very stable
- % Residual ratio ([4]; pH 2.0, 25° C., 0 hr): 100%
- % Residual ratio ([4]; pH 2.0, 25° C., 3 hr): 100%
- % Residual ratio ([4]; pH 2.0, 25° C., 6 hr): 102%
- % Residual ratio ([4]; pH 2.0, 25° C., 9 hr): 102%
- % Residual ratio ([4]; pH 2.0, 25° C., 12 hr): 104%
- % Residual ratio ([4]; pH 2.0, 25° C., 24 hr): 102%
- stability in solution (in words) ([4]; pH 3.0, 25° C.): sufficient stability
- % Residual ratio ([4]; pH 3.0, 25° C., 0 hr): 100%
- % Residual ratio ([4]; pH 3.0, 25° C., 3 hr): 98.6%
- % Residual ratio ([4]; pH 3.0, 25° C., 6 hr): 97.3%
- % Residual ratio ([4]; pH 3.0, 25° C., 9 hr): 98.8%
- % Residual ratio ([4]; pH 3.0, 25° C., 12 hr): 94.5%
- % Residual ratio ([4]; pH 3.0, 25° C., 24 hr): 90.7%
- % Residual ratio ([4]; pH 5.0, 25° C., 0 hr): 100%
- % Residual ratio ([4]; pH 5.0, 25° C., 3 hr): 36.0%
- % Residual ratio ([4]; pH 5.0, 25° C., 6 hr): 14.0%
- % Residual ratio ([4]; pH 5.0, 25° C., 9 hr): 5.2%
- % Residual ratio ([4]; pH 5.0, 25° C., 12 hr): 0%
- % Residual ratio ([4]; pH 5.0, 25° C., 24 hr): 0%
- % Residual ratio ([4]; pH 7.4, 25° C., 0 hr): 100%
- % Residual ratio ([4]; pH 7.4, 25° C., 3 hr): 0%
- % Residual ratio ([4]; pH 7.4, 25° C., 6 hr): 0%
- % Residual ratio ([4]; pH 7.4, 25° C., 9 hr): 0%
- % Residual ratio ([4]; pH 7.4, 25° C., 12 hr): 0%
- % Residual ratio ([4]; pH 7.4, 25° C., 24 hr): 0%
- % Residual ratio ([4]; pH 9.0, 25° C., 0 hr): 100%
- % Residual ratio ([4]; pH 9.0, 25° C., 3 hr): 0%
- % Residual ratio ([4]; pH 9.0, 25° C., 6 hr): 0%
- % Residual ratio ([4]; pH 9.0, 25° C., 9 hr): 0%
- % Residual ratio ([4]; pH 9.0, 25° C., 12 hr): 0%
- % Residual ratio ([4]; pH 9.0, 25° C., 24 hr): 0%
- % Measurement value (conversion rate to 2-acetylnaphtho[2,3-b]furan-4,9-dione) [5]: 100%
- Plasma Compound Concentration ([6]; 0.083 hr, animal 1): 3.74 µmol/L
- Plasma Compound Concentration ([6]; 0.083 hr, animal 2): 4.41 µmol/L
- Plasma Compound Concentration ([6]; 0.083 hr, animal 3): 5.29 µmol/L
- Plasma Compound Concentration ([6]; 0.083 hr, mean): 4.48 µmol/L
- Plasma Compound Concentration ([6]; 0.5 hr, animal 1): 0.69 µmol/L
- Plasma Compound Concentration ([6]; 0.5 hr, animal 2): 1.17 µmol/L
- Plasma Compound Concentration ([6]; 0.5 hr, animal 3): 1.39 µmol/L
- Plasma Compound Concentration ([6]; 0.5 hr, mean): 1.08 µmol/L
- Plasma Compound Concentration ([6]; 1.0 hr, animal 1): 0.42 µmol/L
- Plasma Compound Concentration ([6]; 1.0 hr, animal 2): 0.62 µmol/L
- Plasma Compound Concentration ([6]; 1.0 hr, animal 3): 0.63 µmol/L
- Plasma Compound Concentration ([6]; 1.0 hr, mean): 0.56 µmol/L
- Plasma Compound Concentration ([6]; 2.0 hr, animal 1): 0.36 µmol/L
- Plasma Compound Concentration ([6]; 2.0 hr, animal 2): 0.28 µmol/L
- Plasma Compound Concentration ([6]; 2.0 hr, animal 3): 0.08 µmol/L
- Plasma Compound Concentration ([6]; 2.0 hr, mean): 0.24 µmol/L
- production of 2-acetylnaphtho[2,3-b]furan-4,9-dione (Activated form 1) (in words) ([6]; intravenously administered to mice): rapidly produced
